This note sets out measurements from PubChem BioAssay AID270 (DTP/NCI, 2004).

Several values for one entry are separate records, joined by “and”; a condition that tells them apart may be missing. Identical values can stand only once. Results filed as inconclusive are left out.

For this test, the system named is BDF1 mice, s.c. Lewis lung carcinoma, T/C %. As to the kind of experiment: NCI In Vivo Anticancer Drug Screen. Data for tumor model Lewis Lung Carcinoma (subcutaneous) in B6D2F1 (BDF1) mice. The method in brief: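 Antitumor effect in vivo is scored from survival or tumor burden, reported as treated relative to vehicle controls.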
The mark [1] stands for this setting: endpoint: median survival time, dose: 25.0 mg/kg/injection, schedule: Q01DX009 (ip), vehicle: Klucel (hydroxypropylcellulose) (HPC), higher = longer survival.
[2] abbreviates: endpoint: mean tumor weight, dose: 100.0 mg/kg/injection, schedule: Q01DX011 (ip), vehicle: saline, higher = larger tumour.

Consider `CN(Cc1cnc2nc(N)nc(N)c2n1)c1ccc(C(=O)N[C@@H](CCC(=O)O)C(=O)O)cc1`, for which the T/C reads like this: (endpoint: mean tumor weight, dose: 0.5 mg/kg/injection, schedule: Q01DX011 (ip), vehicle: alkali diluted with saline, higher = larger tumour) 91 % of control; (endpoint: mean tumor weight, dose: 0.5 mg/kg/injection, schedule: Q01DX011 (ip), vehicle: carboxymethylcellulose (CMC), higher = larger tumour) 97 % of control; (endpoint: mean tumor weight, dose: 0.75 mg/kg/injection, schedule: Q01DX011 (ip), vehicle: alkali diluted with saline, higher = larger tumour) 111 % of control; (endpoint: mean tumor weight, dose: 1.0 mg/kg/injection, schedule: Q01DX011 (ip), vehicle: alkali diluted with saline, higher = larger tumour) 83 % of control; (endpoint: mean tumor weight, dose: 1.0 mg/kg/injection, schedule: Q01DX011 (ip), vehicle: carboxymethylcellulose (CMC), higher = larger tumour) 91 % of control; (endpoint: mean tumor weight, dose: 1.5 mg/kg/injection, schedule: Q01DX011 (ip), vehicle: alkali diluted with saline, higher = larger tumour) 93 % of control. Also, the T/C (endpoint: mean tumor weight, dose: 2.0 mg/kg/injection, schedule: Q01DX011 (ip), vehicle: alkali diluted with saline, higher = larger tumour) was 72 % of control; the T/C (endpoint: mean tumor weight, dose: 2.0 mg/kg/injection, schedule: Q01DX011 (ip), vehicle: carboxymethylcellulose (CMC), higher = larger tumour) is 90 % of control; the T/C (endpoint: mean tumor weight, dose: 4.0 mg/kg/injection, schedule: Q01DX011 (ip), vehicle: carboxymethylcellulose (CMC), higher = larger tumour) is 25 % of control; the T/C (endpoint: median survival time, dose: 0.5 mg/kg/injection, schedule: Q01DX009 (ip), vehicle: Klucel (hydroxypropylcellulose) (HPC), higher = longer survival) is 107 % of control; the T/C (endpoint: median survival time, dose: 0.5 mg/kg/injection, schedule: Q01DX009 (ip), vehicle: saline with Tween-80, higher = longer survival) was 89 % of control and 100 % of control; the T/C (endpoint: median survival time, dose: 1.0 mg/kg/injection, schedule: Q01DX009 (ip), vehicle: Klucel (hydroxypropylcellulose) (HPC), higher = longer survival) was 112 % of control. Besides, the T/C is, setting by setting: (endpoint: median survival time, dose: 1.0 mg/kg/injection, schedule: Q01DX009 (ip), vehicle: saline with Tween-80, higher = longer survival) 93 % of control; (endpoint: median survival time, dose: 1.0 mg/kg/injection, schedule: Q01DX009 (ip), vehicle: saline, higher = longer survival) 100 % of control; (endpoint: median survival time, dose: 2.0 mg/kg/injection, schedule: Q01DX009 (ip), vehicle: saline, higher = longer survival) 102 % of control; (endpoint: median survival time, dose: 4.0 mg/kg/injection, schedule: Q01DX009 (ip), vehicle: Klucel (hydroxypropylcellulose) (HPC), higher = longer survival) 121 % of control; (endpoint: median tumor weight (est.), dose: 0.5 mg/kg/injection, schedule: Q01DX009 (ip), vehicle: saline with Tween-80, higher = larger tumour) 95 % of control; (endpoint: median tumor weight (est.), dose: 1.0 mg/kg/injection, schedule: Q01DX009 (ip), vehicle: saline with Tween-80, higher = larger tumour) 86 % of control. Besides, the T/C by setting is: (endpoint: median tumor weight (est.), dose: 1.4 mg/kg/injection, schedule: Q01DX011 (ip), vehicle: sodium bicarbonate, higher = larger tumour) 99 % of control; (endpoint: median tumor weight (est.), dose: 2.1 mg/kg/injection, schedule: Q01DX011 (ip), vehicle: sodium bicarbonate, higher = larger tumour) 74 % of control.

For the compound `C[C@]1(O)CC[C@H]2[C@@H]3CCC4=CC(=O)CC[C@]4(C)[C@@]3(F)[C@@H](O)C[C@@]21C`, the T/C is, setting by setting: (endpoint: median survival time, dose: 12.5 mg/kg/injection, schedule: Q02DX009 (ip), vehicle: Klucel (hydroxypropylcellulose) (HPC), higher = longer survival) 103 % of control; (endpoint: median survival time, dose: 25.0 mg/kg/injection, schedule: Q02DX009 (ip), vehicle: Klucel (hydroxypropylcellulose) (HPC), higher = longer survival) 93 % of control; (endpoint: median survival time, dose: 50.0 mg/kg/injection, schedule: Q02DX009 (ip), vehicle: Klucel (hydroxypropylcellulose) (HPC), higher = longer survival) 87 % of control; (endpoint: median survival time, dose: 100.0 mg/kg/injection, schedule: Q02DX009 (ip), vehicle: Klucel (hydroxypropylcellulose) (HPC), higher = longer survival) 109 % of control; (endpoint: median survival time, dose: 200.0 mg/kg/injection, schedule: Q02DX009 (ip), vehicle: Klucel (hydroxypropylcellulose) (HPC), higher = longer survival) 103 % of control; (endpoint: median survival time, dose: 400.0 mg/kg/injection, schedule: Q02DX009 (ip), vehicle: Klucel (hydroxypropylcellulose) (HPC), higher = longer survival) 96 % of control.

Consider `O=NN(CCCl)C(=O)Nc1cccc(O)c1`, for which the T/C under setting [1] was 116 % of control.

With `Oc1cc2c3c(c1)c1cc4c(cc1c[n+]3CC2)OCO4`, the T/C was 109 % of control (endpoint: median survival time, dose: 3.13 mg/kg/injection, schedule: Q01DX009 (ip), vehicle: water, higher = longer survival); 96 % of control (endpoint: median survival time, dose: 6.25 mg/kg/injection, schedule: Q01DX009 (ip), vehicle: water, higher = longer survival); 122 % of control (endpoint: median survival time, dose: 12.5 mg/kg/injection, schedule: Q01DX009 (ip), vehicle: water, higher = longer survival); 96 % of control (endpoint: median survival time, dose: 25.0 mg/kg/injection, schedule: Q01DX009 (ip), vehicle: water, higher = longer survival).

As to `O=C1C2CCCCC2C(=O)N1c1nccs1` (configuration not stated), the T/C was 58 % of control (endpoint: mean tumor weight, dose: 50.0 mg/kg/injection, schedule: Q01DX011 (ip), vehicle: carboxymethylcellulose (CMC), higher = larger tumour); 71 % of control (endpoint: mean tumor weight, dose: 100.0 mg/kg/injection, schedule: Q01DX011 (ip), vehicle: carboxymethylcellulose (CMC), higher = larger tumour); 84 % of control (endpoint: mean tumor weight, dose: 200.0 mg/kg/injection, schedule: Q01DX011 (ip), vehicle: carboxymethylcellulose (CMC), higher = larger tumour).

In the case of `CCN(CC)CCNc1ccc([N+](=O)[O-])c2sc3ccccc3c(=O)c12`, the T/C reads like this: (endpoint: mean tumor weight, dose: 12.5 mg/kg/injection, schedule: Q01DX011 (ip), vehicle: other, higher = larger tumour) 88 % of control; (endpoint: mean tumor weight, dose: 25.0 mg/kg/injection, schedule: Q01DX011 (ip), vehicle: other, higher = larger tumour) 102 % of control; (endpoint: mean tumor weight, dose: 50.0 mg/kg/injection, schedule: Q01DX011 (ip), vehicle: other, higher = larger tumour) 84 % of control.

Consider `CC(C)(C)C(=O)O`, for which the T/C was 75 % of control (endpoint: mean tumor weight, dose: 37.0 mg/kg/injection, schedule: Q01DX011 (ip), vehicle: other, higher = larger tumour); 159 % of control (endpoint: mean tumor weight, dose: 83.0 mg/kg/injection, schedule: Q01DX011 (ip), vehicle: other, higher = larger tumour); 92 % of control (endpoint: mean tumor weight, dose: 125.0 mg/kg/injection, schedule: Q01DX011 (ip), vehicle: other, higher = larger tumour).

In the case of `CN(/N=N/c1nc[nH]c1C(N)=O)C(C)(C)C`, the T/C was 109 % of control (endpoint: median survival time, dose: 200.0 mg/kg/injection, schedule: Q01DX009 (ip), vehicle: Klucel (hydroxypropylcellulose) (HPC), higher = longer survival) and 90 % of control (endpoint: median survival time, dose: 400.0 mg/kg/injection, schedule: Q01DX009 (ip), vehicle: Klucel (hydroxypropylcellulose) (HPC), higher = longer survival).

Consider `O=C(Nc1ccc(C(=O)O)cc1)Oc1ccc(N(CCCl)CCCl)cc1`, for which the T/C is, setting by setting: (endpoint: median survival time, dose: 6.25 mg/kg/injection, schedule: Q01DX009 (ip), vehicle: Klucel (hydroxypropylcellulose) (HPC), higher = longer survival) 100 % of control; (endpoint: median survival time, dose: 12.5 mg/kg/injection, schedule: Q01DX009 (ip), vehicle: Klucel (hydroxypropylcellulose) (HPC), higher = longer survival) 100 % of control; under setting [1], 88 % of control.

On to `CCOCCCN`, for which the T/C was 106 % of control (endpoint: mean tumor weight, dose: 44.0 mg/kg/injection, schedule: Q01DX011 (ip), vehicle: saline, higher = larger tumour); 97 % of control (endpoint: mean tumor weight, dose: 66.0 mg/kg/injection, schedule: Q01DX011 (ip), vehicle: saline, higher = larger tumour); 123 % of control under setting [2]; 101 % of control (endpoint: mean tumor weight, dose: 148.0 mg/kg/injection, schedule: Q01DX011 (ip), vehicle: saline, higher = larger tumour).

With `CC[C@@]1(O)C[C@H](OC2CC(N(C)C)C(OC3CC(O)C(OC4CCC(=O)C(C)O4)C(C)O3)C(C)O2)c2c(cc3c(c2O)C(=O)c2c(O)cccc2C3=O)[C@H]1C(=O)OC` (some centres not stated), the T/C (endpoint: median survival time, dose: 1.5 mg/kg/injection, schedule: Q01DX009 (ip), vehicle: Klucel (hydroxypropylcellulose) (HPC), higher = longer survival) was 104 % of control.

For `COC12C(COC(N)=O)C3=C(C(=O)C(C)=C(N)C3=O)N1CC1C2N1C` (configuration not stated), the T/C is, setting by setting: (endpoint: median survival time, dose: 2.0 mg/kg/injection, schedule: Q01DX011 (ip), vehicle: other, higher = longer survival) 98 % of control; (endpoint: median survival time, dose: 4.0 mg/kg/injection, schedule: Q01DX011 (ip), vehicle: other, higher = longer survival) 96 % of control.

`CCSC(=O)N1c2ccc(OC)cc2C=CC1C#N` (configuration not stated): the T/C was 122 % of control (endpoint: median survival time, dose: 100.0 mg/kg/injection, schedule: Q01DX009 (ip), vehicle: saline with Tween-80, higher = longer survival); 102 % of control (endpoint: median survival time, dose: 200.0 mg/kg/injection, schedule: Q01DX009 (ip), vehicle: saline with Tween-80, higher = longer survival); 108 % of control (endpoint: median survival time, dose: 400.0 mg/kg/injection, schedule: Q01DX009 (ip), vehicle: saline with Tween-80, higher = longer survival).

Regarding `Oc1c(Cl)cc(Cl)cc1/C=N/NC(=S)Nc1cc(C(F)(F)F)cc(C(F)(F)F)c1`, the T/C is 104 % of control (endpoint: median survival time, dose: 3.13 mg/kg/injection, schedule: Q01DX009 (ip), vehicle: olive oil, sesame oil, peanut oil, higher = longer survival) and 90 % of control (endpoint: median survival time, dose: 12.5 mg/kg/injection, schedule: Q01DX009 (ip), vehicle: olive oil, sesame oil, peanut oil, higher = longer survival).

Turning to `CS(=O)(=O)OCCC(=O)N1CCN(C(=O)CCOS(C)(=O)=O)CC1`, the T/C is 85 % of control (endpoint: mean tumor weight, dose: 12.5 mg/kg/injection, schedule: Q01DX011 (ip), vehicle: saline, higher = larger tumour); 66 % of control (endpoint: mean tumor weight, dose: 25.0 mg/kg/injection, schedule: Q01DX011 (ip), vehicle: saline, higher = larger tumour); 85 % of control (endpoint: mean tumor weight, dose: 50.0 mg/kg/injection, schedule: Q01DX011 (ip), vehicle: saline, higher = larger tumour); 46 % of control under setting [2]; 109 % of control (endpoint: median survival time, dose: 1.56 mg/kg/injection, schedule: Q01DX009 (ip), vehicle: saline, higher = longer survival); 103 % of control (endpoint: median survival time, dose: 3.12 mg/kg/injection, schedule: Q01DX009 (ip), vehicle: saline, higher = longer survival). Besides, the T/C (endpoint: median survival time, dose: 6.25 mg/kg/injection, schedule: Q01DX009 (ip), vehicle: saline, higher = longer survival) was 106 % of control; the T/C (endpoint: median survival time, dose: 12.5 mg/kg/injection, schedule: Q01DX009 (ip), vehicle: saline, higher = longer survival) is 103 % of control; the T/C (endpoint: median survival time, dose: 25.0 mg/kg/injection, schedule: Q01DX009 (ip), vehicle: saline, higher = longer survival) was 102 % of control; the T/C (endpoint: median survival time, dose: 50.0 mg/kg/injection, schedule: Q01DX009 (ip), vehicle: saline, higher = longer survival) was 114 % of control.
